Experiments:
LXR [1] = assay: ABCA1 (LXR target gene) expression by Q-RT-PCR in M2-10B4 bone marrow stromal cells; details: for fold induction at 2 µM: M210B4, 48 h, read-out: ABCA1 gene expression, Fold Induction ± SD; for LXR signaling activation: bone marrow stromal cells
Description: This was measured by the ability of these molecules to induce the expression of LXR-target genes, including ABCA1, in M2-10B4 bone marrow stromal cells (MSC) after 48 hours of treatment (Table 1).

[2] = test system: U2OS human osteosarcoma cells; assay: Anchorage-independent clonogenic growth of U2OS cells; format: cell-based; details: 1 μM, 72 hours, colonies after 10 days (FIG. 4)
Description: (§1) Next, cells were harvested and examined for clonogenic growth in non-adherent plates after 10 days of culturing. Data from a representative of two separate experiments are reported as the relative number of colonies formed by cells treated with LXR ligands relative to cells treated with control vehicle (% of control).
(§2) We examined whether LXR activation inhibits the clonogenic growth of human osteosarcoma cells using an anchorage-independent cell growth assay. Saos-2 and U2OS cells were seeded in standard tissue culture plates and treated for 72 hours with control vehicle or 1 μM of TO, 22R, or Oxy16. Following treatments with LXR ligands, the drugs were removed and the cells harvested and plated in methylcellulose media in non-adherent plates (Costar) and the cell colonies formed after 10 days were counted.

LXR [3] = assay: LXR target gene expression in human pancreatic cancer cells
REH human ALL cells = assay: Clonogenic growth of REH ALL cells; format: cell-based
Description: (§3) Following treatment cells were harvested by washing cells twice with phosphate buffered saline (PBS) followed by enzymatically detaching with trypsin/EDTA. Cells were collected then washed twice with PBS. Cells were counted then resuspended in 500 uL of media. The volume of cells required for 2,000 cells from the control group was removed from each group then mixed with methylcellulose (1.2%) containing 30% fetal bovine serum, 1% bovine serum albumin, 10^-4 M 2-mercaptoethanol, and 2 mM L-glutamine. Cells were plated in low-attachment 6 well plates (1 ml/well), each group being plated in triplicate. Following 10 days of incubation, tumor cell colonies consisting of >40 cells were counted using an inverted microscope. Results are presented as the percentage of colonies from each treatment group compared to the control group (Table 2).
A similar experiment to that shown above for pancreatic cancer cells was performed using the human ALL cells, REH (Table 3).

Hedgehog signaling = assay: CAPAN-1 conditioned-medium-induced Hh target gene expression (Ptch1, HHIP, Gli1) in C3H10T1/2 cells; format: cell-based; details: C3H10T1/2 cells treated with CAPAN-1 CM
Description: Next, cells were treated with DMEM containing 5% […] or CAPAN-1 CM in the presence or absence of TO, Oxy16, or Cyc. After 48 hours, RNA was extracted and analyzed by Q-RT-PCR for the expression of Hh target genes Ptch1, HHIP, and Gli1 and normalized to GAPDH expression.
As noted above, Hh signaling appears to play an important role in the initiation and progression of pancreatic cancer (26), and the inhibition of HE signaling using small molecule antagonists inhibits pancreatic cancer cells from growing in vitro and in vivo (50). […] Subsequently, Hh signaling in stromal cells provides a permissive milieu for tumor cells to grow. […] In this Example, we examine this possibility using an in vitro model system in which Hh signaling is induced in C3H10T1/2 embryonic fibroblasts by conditioned-medium (CM) from CAPAN-1 human pancreatic cancer cells.
In order to assess the functional activity of Hh proteins produced by CAPAN-1 cells, we examined the ability of CM to induce Hh target gene expression in C3H10T1/2 embryonic fibroblasts.

[4] = test system: Saos-2 human osteosarcoma cells; assay: Anchorage-independent clonogenic growth of Saos-2 cells; format: cell-based; details: Saos-2; 1 μM, 72 hours, colonies after 10 days (FIG. 4)
Description: as §1, §2

LXR [5] = assay: LXR target gene expression by Q-RT-PCR in Saos-2 osteosarcoma cells; format: cell-based, human; details: Saos-2 cells (FIG. 2, 72 hours for TO)
Description: Data from a representative experiment are reported as the Data from a representative experiment are reported as the mean of triplicate determinations±SD relative to the expression level of LXRα (p<0.001 for control vs. both concentrations of TO for ABCA1 and SREBP1c mRNA).
Culturing the cells in varying serum (FBS) concentrations from 1% to 10% had no effect on LXRs or LXR target gene expression levels at baseline.

[6] = test system: human pancreatic cancer cells; assay: Clonogenic growth of human pancreatic cancer cells in vitro; format: cell-based
[7] = test system: L3.6p1 human pancreatic cancer cells; assay: Clonogenic growth of L3.6p1 pancreatic cancer cells in methylcellulose; format: cell-based; details: 72 hours treatment, colonies counted after 10 days
Description: as §3

[8] = test system: human NCI-H929 multiple myeloma cell line; assay: Clonogenic growth of NCI-H929 multiple myeloma cells; format: cell-based; details: 1 μM, 96 hours, colonies after 10 days (FIG. 6)
Description: NCI-11929 multiple myeloma cells were treated for 96 hours with control vehicle or 1 μM of each compound as shown. Next, drugs were removed and cells were plated in methylcellulose. Clonogenic growth of colonies determined after 10 days. Data are reported as percentage of colony number normalized to control group.
In order to examine the effect of LXR activation on the clonogenic growth of multiple myeloma cells, the human NCI-H929 multiple myeloma cell line was used.

[9] = test system: human primary multiple myeloma cells derived from patients; assay: Clonogenic growth of primary multiple myeloma cells from patients in methylcellulose; format: cell-based; details: 1 μM, 96 hours, CD34+ and CD138+ depleted bone marrow mononuclear cells
[10] = test system: NCI-H929 multiple myeloma cancer stem cells; assay: Percentage of cancer stem cells (CD138 negative, ALDH positive) in NCI-H929 cultures by flow cytometry; format: cell-based, human; details: 1 μM, 96 hours (FIGS. 7, 8)
Description: NCI-H929 multiple myeloma cells were treated for 96 hours with control vehicle or 1 μM of each compound as shown. Next, percentage of CD138negative cells in the same number of starting cells from each group was determined by flow cytometry.
NCI-H929 multiple myeloma cells were treated for 96 hours with control vehicle or 1 μM of each compound as shown. Next, percentage of ALDH+ cells in the same number of starting cells from each group was determined by flow cytometry.

## CC(C)CCC[C@](C)(O)C1CCC2C3CC=C4C=CCC[C@]4(C)C3CC[C@@]21C (stereo partly drawn) [Oxy37, (2S)-2-((10R,13S)-10,13-Dimethyl-2,7,8,9,10,11,12,13,14,15,16,17-dodecahydro-1H-cyclopenta[a]phenanthren-17-yl)-6-methylheptan-2-ol]
LXR [1]
  fold induction at 2 µM: 2 ± 0.1
  LXR signaling activation: Activate LXR Signaling

## CC(C)CC[C@@H](O)[C@@H](C)[C@H]1CC[C@H]2[C@@H]3CC=C4C[C@@H](O)CC[C@]4(C)[C@H]3CC[C@]12C [Oxy 22R, 22R-hydroxycholesterol, reference compound]
[2]
  clonogenic growth: significant inhibition
LXR [3]
  expression of LXR target genes: induce the expression of LXR target genes
REH human ALL cells; 0.1 μM
  Normalized Colony # (% of control): 36 % of control
  Raw Colony #: 33
REH human ALL cells; 0.5 μM
  Normalized Colony # (% of control): 2 % of control
  Raw Colony #: 2
Hedgehog signaling
  CM-induced Hh signaling: inhibited
[4]
  clonogenic growth: significant inhibition
LXR [5]
  expression of LXR target genes ABCA1 and SREBP1c: significant expression
[6]
  clonogenic growth: significantly inhibit
[7]; 5 μM
  Normalized Colony # (% of control): 63 % of control
  Raw Colony #: 153
[7]; 10 μM
  Normalized Colony # (% of control): 59 % of control
  Raw Colony #: 142

## C[C@]12CC[C@H]3[C@@H](CC=C4C[C@@H](O)CC[C@@]43C)[C@@H]1CC[C@@H]2[C@@](C)(O)CCCc1ccccc1 [Oxy22]
LXR [1]
  fold induction at 2 µM: 2.2 ± 0.4
  LXR signaling activation: Activate LXR Signaling

## CC(C)CCC[C@](C)(O)C1CCC2C3CCC4=CC(=O)CC[C@]4(C)C3CC[C@@]21C (stereo partly drawn) [Oxy31, (10R,13S)-17-((S)-2-Hydroxy-6-methylheptan-2-yl)-10,13-dimethyl-6,7,8,9,10,11,12, 13,14,15,16,17-dodecahydro-1H-cyclopenta[a]phenanthren-3(2H)-one]
LXR [1]
  fold induction at 2 µM: 2 ± 0.3
  LXR signaling activation: Activate LXR Signaling

## C[C@]12CC[C@H]3[C@@H](CC=C4C[C@@H](O)CC[C@@]43C)[C@@H]1CC[C@@H]2[C@@](C)(O)CCc1cccnc1 [Oxy43, (3S,8S,9S,10R,13S,14S,17S)-17-((S)-2-Hydroxy-4-(yridine-3-yl)butan-2-yl)-10,13-dimethyl-2,3,4,7,8,940,11,12,13,14,15,16,17-tetradecahydro-1H-cyclopenta-[a]-phenanthren-3-ol]
LXR [1]
  fold induction at 2 µM: 2.5 ± 0.8
  LXR signaling activation: Activate LXR Signaling

## C[C@]12CC[C@H]3[C@@H](CC=C4C[C@@H](O)CC[C@@]43C)[C@@H]1CC[C@@H]2[C@@](C)(O)CCc1ccc(F)cc1 [Oxy45, (3S,8S,9S,10R,13S,14S,17S)-17-((S)-4-(4-Fluorophenyl)-2-hydroxybutan-2-yl)-10,13-dimethyl-2,3,4,7,8,9,10,11,12,13,14,15,16,17-tetradecahydro-1H-cyclopenta-M-phenanthren-3-ol]
[8]
  clonogenic growth: inhibited clonogenic growth
[9]; Specimen # 1
  colony formation (% of control): 46 % of control
[9]; Specimen # 2
  colony formation (% of control): 25 % of control
REH human ALL cells; 0.1 μM
  Normalized Colony # (% of control): 43 % of control
  Raw Colony #: 40
REH human ALL cells; 0.5 μM
  Normalized Colony # (% of control): 0.5 % of control
  Raw Colony #: 0.5
LXR [1]
  fold induction at 2 µM: 3.5 ± 0.5
  LXR signaling activation: Activate LXR Signaling
[10]
  percentage of cancer stem cells (CD138 negative and ALDH positive cells): significantly reduced

## CC(C)CCC[C@](C)(O)[C@H]1CC[C@H]2[C@@H]3CC=C4C[C@@H](O)CC[C@]4(C)[C@H]3CC[C@@]21C [Oxy 20S, 20(S)-hydroxycholesterol, reference compound]
LXR [5]
  expression of LXR target genes ABCA1 and SREBP1c: significant expression

## CC(C)CCC[C@](C)(O)C1CCC2C3CC=C4CC(=O)CC[C@]4(C)C3CC[C@@]21C (stereo partly drawn) [Oxy30, (10R,13S)-17-((S)-2-Hydroxy-6-methylheptan-2-yl)-10,13-dimethyl-4,7,8,9,10,11,12, 13,14,15,16,17-dodecahydro-1H-cyclopenta[a]phenanthren-3(2H)-one]
LXR [1]
  fold induction at 2 µM: 2.8 ± 0.8
  LXR signaling activation: Activate LXR Signaling
[7]; 5 μM
  Normalized Colony # (% of control): 39 % of control
  Raw Colony #: 96
[7]; 10 μM
  Normalized Colony # (% of control): 41 % of control
  Raw Colony #: 100

## CC(C)CCC[C@](C)(O)C1CCC2C3CC=C4C[C@H](O)CC[C@]4(C)C3CC[C@@]21C (stereo partly drawn) [Oxy35, (3R,10R,13S)-17-((S)-2-Hydroxy-6-methylheptan-2-yl)-10,13-dimethyl-2,3,4,7,8,9, 10,11,12,13,14,15,16,17-tetradecahydro-1H-cyclopenta[a]phenanthren-3-ol]
LXR [1]
  fold induction at 2 µM: 4 ± 1.2
  LXR signaling activation: Activate LXR Signaling

## CC(C)CC[C@H](O)[C@@H](C)[C@H]1CC[C@H]2[C@@H]3CC=C4C[C@@H](O)CC[C@]4(C)[C@H]3CC[C@]12C [22(S)-hydroxycholesterol]
Hedgehog signaling
  CM-induced Hh signaling: did not have similar inhibitory effects

## C[C@]12CC[C@H]3[C@@H](CC=C4C[C@@H](O)CC[C@@]43C)[C@@H]1CC[C@@H]2[C@@](C)(O)CCc1ccc(Cl)cc1 [Oxy47, (3S,8S,9S,10R,13S,14S,17S)-17-((S)-4-(4-Chlorophenyl)-2-hydroxybutan-2-yl)-10,13-dimethyl-2,3,4,7,8,9,10,11,12,13,14,15,16,17-tetradecahydro-1H-cyclopenta-[a]-phenanthren-3-ol]
LXR [1]
  fold induction at 2 µM: 1.8 ± 0.5
  LXR signaling activation: Activate LXR Signaling

— patent publication US20160206631A1, “OXYSTEROLS THAT ACTIVATE LIVER X RECEPTOR SIGNALING AND INHIBIT HEDGEHOG SIGNALING” (THE REGENTS OF THE UNIVERSITY OF CALIFORNIA, priority 2010, published 2016)
